Experiment [1] addresses T1, Mitogen-activated protein kinase kinase kinase 12 (Homo sapiens) (UniProt Q12852).
T1 sequence (whole entry): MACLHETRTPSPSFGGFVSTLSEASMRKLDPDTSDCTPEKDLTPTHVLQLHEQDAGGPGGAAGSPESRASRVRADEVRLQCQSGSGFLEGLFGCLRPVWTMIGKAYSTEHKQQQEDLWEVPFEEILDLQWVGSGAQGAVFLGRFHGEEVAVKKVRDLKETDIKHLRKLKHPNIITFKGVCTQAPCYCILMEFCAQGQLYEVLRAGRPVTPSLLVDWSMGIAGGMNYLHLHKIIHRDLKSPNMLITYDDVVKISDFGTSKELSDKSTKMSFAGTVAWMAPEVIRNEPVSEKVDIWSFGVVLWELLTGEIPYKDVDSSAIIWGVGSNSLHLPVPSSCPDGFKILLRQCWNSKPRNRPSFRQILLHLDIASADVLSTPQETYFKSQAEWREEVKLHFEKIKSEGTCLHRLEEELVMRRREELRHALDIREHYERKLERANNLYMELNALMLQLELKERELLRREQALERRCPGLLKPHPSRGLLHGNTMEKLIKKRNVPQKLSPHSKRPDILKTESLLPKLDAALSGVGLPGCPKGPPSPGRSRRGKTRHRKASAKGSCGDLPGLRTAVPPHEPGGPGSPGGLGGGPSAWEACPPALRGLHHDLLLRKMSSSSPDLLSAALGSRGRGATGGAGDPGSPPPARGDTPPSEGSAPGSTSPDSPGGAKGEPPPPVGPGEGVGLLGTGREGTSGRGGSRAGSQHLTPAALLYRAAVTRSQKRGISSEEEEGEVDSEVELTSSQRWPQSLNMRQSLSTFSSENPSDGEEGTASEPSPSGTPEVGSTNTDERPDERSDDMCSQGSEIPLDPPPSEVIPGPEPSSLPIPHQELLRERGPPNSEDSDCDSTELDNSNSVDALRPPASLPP
The experiment is described as follows: Selectivity interaction (KinomeScan (DiscoverX)) EUB0001619a MAP3K12. As to conditions: at 1 µM.

Experiment [2] has as its target T2, Serine/threonine-protein kinase TAO2 (Homo sapiens) (UniProt Q9UL54).
T2 sequence (whole entry): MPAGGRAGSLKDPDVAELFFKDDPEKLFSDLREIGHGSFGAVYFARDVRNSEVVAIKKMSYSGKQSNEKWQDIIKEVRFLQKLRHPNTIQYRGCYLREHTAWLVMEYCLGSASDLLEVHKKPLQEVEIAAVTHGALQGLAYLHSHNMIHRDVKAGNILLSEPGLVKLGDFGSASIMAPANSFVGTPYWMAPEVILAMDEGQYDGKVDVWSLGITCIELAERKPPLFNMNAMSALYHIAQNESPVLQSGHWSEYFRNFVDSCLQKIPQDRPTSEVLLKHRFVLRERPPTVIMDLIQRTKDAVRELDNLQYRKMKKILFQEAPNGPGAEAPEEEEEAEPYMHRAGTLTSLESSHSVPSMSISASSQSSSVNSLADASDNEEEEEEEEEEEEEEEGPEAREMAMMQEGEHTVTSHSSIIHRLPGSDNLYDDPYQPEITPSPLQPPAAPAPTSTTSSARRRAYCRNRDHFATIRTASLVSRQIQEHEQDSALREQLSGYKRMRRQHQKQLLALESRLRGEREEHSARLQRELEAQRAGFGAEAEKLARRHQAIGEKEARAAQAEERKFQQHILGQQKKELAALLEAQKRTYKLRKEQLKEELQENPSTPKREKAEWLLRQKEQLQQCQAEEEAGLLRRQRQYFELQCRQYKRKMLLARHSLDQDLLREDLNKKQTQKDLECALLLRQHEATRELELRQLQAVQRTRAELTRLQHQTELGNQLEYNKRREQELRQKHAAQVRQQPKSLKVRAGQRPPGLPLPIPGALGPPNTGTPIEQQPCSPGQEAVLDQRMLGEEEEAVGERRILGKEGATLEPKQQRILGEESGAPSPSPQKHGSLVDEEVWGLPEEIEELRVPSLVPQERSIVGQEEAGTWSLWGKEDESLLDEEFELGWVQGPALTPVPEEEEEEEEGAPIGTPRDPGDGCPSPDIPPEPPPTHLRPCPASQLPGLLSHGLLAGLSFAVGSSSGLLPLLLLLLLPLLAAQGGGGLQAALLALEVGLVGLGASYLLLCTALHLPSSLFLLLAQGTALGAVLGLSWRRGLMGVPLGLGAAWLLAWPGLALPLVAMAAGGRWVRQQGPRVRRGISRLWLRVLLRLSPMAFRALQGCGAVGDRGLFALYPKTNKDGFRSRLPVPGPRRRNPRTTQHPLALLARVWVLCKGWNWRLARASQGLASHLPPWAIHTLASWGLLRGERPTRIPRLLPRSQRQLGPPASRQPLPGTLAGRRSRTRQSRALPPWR
The experiment is described as follows: Selectivity interaction (KinomeScan (DiscoverX)) EUB0001619a TAOK2. As to conditions: at 1 µM.

Experiment [3] addresses T3, MAP kinase-activated protein kinase 5 (Homo sapiens) (UniProt Q8IW41).
T3 sequence (whole entry): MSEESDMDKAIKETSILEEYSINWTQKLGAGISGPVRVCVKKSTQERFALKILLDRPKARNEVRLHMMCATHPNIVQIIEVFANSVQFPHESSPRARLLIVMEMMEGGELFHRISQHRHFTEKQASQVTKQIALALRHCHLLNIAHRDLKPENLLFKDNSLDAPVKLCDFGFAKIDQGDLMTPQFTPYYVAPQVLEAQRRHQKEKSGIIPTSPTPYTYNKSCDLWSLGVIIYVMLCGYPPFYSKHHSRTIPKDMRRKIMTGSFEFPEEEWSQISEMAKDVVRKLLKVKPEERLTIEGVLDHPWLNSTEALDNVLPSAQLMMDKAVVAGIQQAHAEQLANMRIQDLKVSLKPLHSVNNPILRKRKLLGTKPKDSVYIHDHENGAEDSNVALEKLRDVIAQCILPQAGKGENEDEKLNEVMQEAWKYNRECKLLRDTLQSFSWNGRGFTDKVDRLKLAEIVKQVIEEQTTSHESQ
Briefly: Selectivity interaction (Kinase panel (Eurofins)) EUB0001564a MAPKAPK5. As to conditions: at 1 µM.

Experiment [4] addresses Protein kinase C beta type (Homo sapiens, UniProt P05771). Briefly: Selectivity interaction (Kinase screening (Upstate/Millipore)) EUB0000604a PRKCB.
In experiment [5] the target is Activin receptor type-1-like (Homo sapiens) (UniProt P37023). The experiment is described as follows: Selectivity interaction (KinomeScan (DiscoverX)) EUB0000092b ACVRL1. As to conditions: at 10 µM.

Each structure is given as a SMILES string.

Sequence of Activin receptor type-1-like (Homo sapiens) (P37023 whole entry): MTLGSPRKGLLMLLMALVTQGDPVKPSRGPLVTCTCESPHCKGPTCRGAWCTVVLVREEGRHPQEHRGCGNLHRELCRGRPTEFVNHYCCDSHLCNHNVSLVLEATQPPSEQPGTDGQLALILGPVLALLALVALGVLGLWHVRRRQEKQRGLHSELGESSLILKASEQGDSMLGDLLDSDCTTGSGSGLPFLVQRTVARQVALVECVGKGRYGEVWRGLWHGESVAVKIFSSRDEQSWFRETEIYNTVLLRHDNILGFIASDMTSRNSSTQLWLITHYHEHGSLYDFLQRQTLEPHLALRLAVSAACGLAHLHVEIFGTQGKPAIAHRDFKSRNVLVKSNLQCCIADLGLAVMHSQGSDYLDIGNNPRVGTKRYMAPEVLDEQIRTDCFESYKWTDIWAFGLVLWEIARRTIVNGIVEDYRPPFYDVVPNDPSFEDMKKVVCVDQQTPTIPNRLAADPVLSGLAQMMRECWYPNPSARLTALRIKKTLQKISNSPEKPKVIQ
Sequence of Protein kinase C beta type (P05771 2-671 limits assumed): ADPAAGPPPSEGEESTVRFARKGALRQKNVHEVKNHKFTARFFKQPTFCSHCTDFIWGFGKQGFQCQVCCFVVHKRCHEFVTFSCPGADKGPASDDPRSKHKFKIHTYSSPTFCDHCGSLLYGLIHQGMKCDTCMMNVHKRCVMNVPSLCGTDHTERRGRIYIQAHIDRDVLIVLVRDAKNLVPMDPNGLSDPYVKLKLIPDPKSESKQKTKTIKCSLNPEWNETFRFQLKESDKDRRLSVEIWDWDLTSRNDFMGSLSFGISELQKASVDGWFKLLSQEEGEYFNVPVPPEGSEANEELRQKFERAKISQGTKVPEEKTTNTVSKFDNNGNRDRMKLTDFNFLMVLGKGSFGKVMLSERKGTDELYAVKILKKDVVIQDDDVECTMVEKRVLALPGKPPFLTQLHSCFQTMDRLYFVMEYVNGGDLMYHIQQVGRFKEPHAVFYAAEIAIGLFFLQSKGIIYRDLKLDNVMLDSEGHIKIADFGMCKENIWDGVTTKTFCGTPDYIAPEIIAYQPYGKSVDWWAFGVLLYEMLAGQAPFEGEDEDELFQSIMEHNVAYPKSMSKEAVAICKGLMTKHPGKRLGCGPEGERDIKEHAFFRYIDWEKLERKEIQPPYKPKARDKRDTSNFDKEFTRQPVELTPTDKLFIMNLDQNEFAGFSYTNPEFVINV

Regarding `N#Cc1cccc(-c2c[nH]c3ncnc(N4CCOCC4)c23)c1`, the values for the % of control in experiment [1] and in experiment [2] were 96% and 100%, respectively. In turn, `CC[C@@H](Nc1c(C#N)c(-c2ccc(-c3cccc(C)c3F)cc2)nc2cnccc12)C(=O)O` [BAY-091] had a % of inhibition in experiment [3] of 23.6%. On to `Cc1cnc(Nc2ccc(F)cc2Cl)nc1-c1c[nH]c(C(=O)N[C@H](CO)c2cccc(Cl)c2)c1`, for which, in experiment [4], the % of inhibition was 4%.

In experiment [5], `CCC(=O)N1CCN(c2ccc(-n3c(=O)ccc4cnc5ccc(-c6cnc7ccccc7c6)cc5c43)cc2C(F)(F)F)CC1` returned a % of control of 83%.
